{"source": "patent US9248187B2", "about": "“Oxadiazole inhibitors of leukotriene production for combination therapy” (Boehringer Ingelheim International GmbH, priority 2012, dated 2016)", "key": {"[1]": {"test_system": "atherosclerotic plaque in the descending aorta", "assay": "13 week HF/HC diet rabbit model of atherosclerosis, on top of simvastatin", "type": "in vivo, NZW rabbits", "conditions": "compound 115 2.5 mg/kg and simvastatin 2.5 mg/kg; p=0.05", "method": "The objective of the study is to determine if the compounds of Formula I provide additional reduction in atherosclerosis development in high fat/high cholesterol (HF/HC) fed rabbits on top of simvastatin compared to simvastatin alone. Treatment with a statin is considered the standard of care for atherosclerosis clinically. In order to determine if the anti-atherosclerotic effect observed in rabbits is effective on top of statin treatment, rabbits were treated with compound 115 (Table 1) in combination with simvastatin and the effects on atherosclerosis reduction with both control and statin treatment alone were compared. […] The rabbits were fed 125 g of rabbit chow each day and both food consumption and body weights were measured throughout the study period. […] The extent of atherosclerosis development was measured in the descending aorta after the vessels were pinned out on the silicone surface of metal trays and stained with Sunan IV stain. […] The percentage of plaque area of the descending aorta was determined. […] Atherosclerotic lesion formation was quantified by image analysis software using ImagePro Plus software. The mean of thee different sections 100 μm apart was determined. The mean value of each parameter was calculated for each different treatment group and compared to the control value. […]"}, "[2]": {"target": "T1, recombinant human FLAP protein (Homo sapiens, UniProt P20292)", "T1 construct": "made in house; host or cells: Sf9 insect cells (membrane fraction, 100,000 x g pellet)", "T1 sequence (P20292 1-161)": "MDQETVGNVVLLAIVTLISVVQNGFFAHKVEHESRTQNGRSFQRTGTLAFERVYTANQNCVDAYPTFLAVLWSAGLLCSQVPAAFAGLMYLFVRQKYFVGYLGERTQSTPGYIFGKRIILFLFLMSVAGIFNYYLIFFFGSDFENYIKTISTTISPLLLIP", "assay": "FLAP binding assay (SPA, displacement of [125I]L-691,831)", "conditions": "@1000 nM", "method": "Assessment of Biological Properties 1. Binding Assay\nCell pellets produced from sf9 insect cells expressing recombinant human FLAP protein are resuspended in buffer A [15 mM Tris-HCl (pH 7.5), 2 mM MgCl2, 0.3 mM EDTA, 1 mM PMSF]. The cells are lysed with a Dounce homogenizer and the material is centrifuged at 10,000×g for 10 minutes. The supernatant is then collected and centrifuged at 100,000×g for 60 minutes. To prepare membrane protein for an assay, an aliquot of the 100,000×g pellet is resuspended in 1 ml of buffer A, Dounce homogenized, and finally subjected to polytron mixing (30 seconds). Membrane protein (25 μl, 5 μg) is mixed with WGA SPA beads (Amersham) and stirred for 1 h."}, "[3]": {"test_system": "proteinuria", "conditions": "clinical trial, human glomerulonephritis; cited from earlier work"}}, "note": "Values joined by “and” are separate entries in the source; they are usually repeats but may differ in a detail not shown here. Identical values can stand only once.", "data": [{"compound": "CN(C)C(=O)Cn1cc(-c2nc([C@@](C)(c3ccc(-c4cnc(N)nc4)cc3)C3CC3)no2)cn1", "note": "(single isomer, unassigned) [Example 115]", "values": [{"measurement": "further reduction in plaque area compared to simvastatin alone", "setting": "[1]", "value": "32% and 34%"}]}, {"compound": "CC(C)C(C)(c1ccc(-c2cnc(N)nc2)cc1)c1noc(O)n1", "note": "(stereo not drawn) [Example 88, 3-{1-[4-(2-Amino-pyrimidin-5-yl)-phenyl]-1,2-dimethyl-propyl}-[1,2,4]oxadiazol-5-ol]", "values": [{"measurement": "FLAP binding % inh", "setting": "[2]", "value": 51, "unit": "% inh@1000 nM"}]}, {"compound": "CC(C)(C)Sc1c(CC(C)(C)C(=O)O)n(Cc2ccc(Cl)cc2)c2ccc(OCc3ccc4ccccc4n3)cc12", "note": "[MK-591]", "values": [{"measurement": "effect on proteinuria", "setting": "[3]", "value": "reduce proteinuria"}]}]}
